Measured values published in patent US10761087B2, “Choroidal neovascularization suppressor or drusen formation suppressor, and method for assessing or screening for same” (Link Genomics, Inc., priority 2015, dated 2020).
Entries after “also recorded” stand apart in the source; their conditions may differ.

Tested on: EMT markers (mesenchymal markers, ECM) in RPE cells (ARPE-19)
Assay: Change in expression of EMT markers (real-time PCR) in EMT-induced RPE cells
Assay type: cell-based, human
Conditions: EMT-induced ARPE-19, 48 hours; compound at Cmax, ½ of Cmax or ¼ of Cmax
Procedure: RPE cells (ARPE-19) were seeded on a plate, and incubated for 5 days at 37° C. For the RPE cells, EMT was induced in the conditions described in Test example 1-1, and respective compounds (oxaprozin, epalrestat, zafirlukast, amlexanox, zaltoprofen) were added simultaneously, and the cells were collected after 48 hours from induction of EMT. As a control, a sample to which a compound to be assessed (test drug) is not added was used. The collected cells were washed with PBS, and 350 μL of an RLT buffer was added to prepare a lysate for RNA extraction. The respective compounds were used in the following concentrations. Oxaprozin: 300 μM, epalrestat: 30 μM, zafirlukast: 3 μM, amlexanox: 30 μM, zaltoprofen: 30 μM. Total RNA was extracted from the lysate using an RNeasy Micro kit (QIAGEN, #74004), and from 2 μg of the obtained RNA, cDNA was prepared using a SuperScript III First-Strand Synthesis SuperMix for qRT-PCR (Invitrogen, #11752-250). Using 50 ng of the obtained cDNA as a template, a real-time PCR (ABI Prism 7500 Sequence Detection System) was conducted according to the manufacturer's protocol, and expression of mRNA of each gene was quantified. Specific primers for respective genes were purchased from Invitrogen. Ct (Threshold Cycle) value of each gene was calculated as a percentage to a non-treated sample after normalization by endogenous control.
Five compounds (flufenamic acid aluminum (addition concentration: 28 μM (Cmax)), mefenamic acid (addition concentration: 39 μm (Cmax)), sulindac (addition concentration: 100 μM), tiaprofenic acid (addition concentration: 1000 μM), and seratrodast (addition concentration: 31 μM (Cmax))) were assessed for change in expression of EMT markers in the same manner as in Test example 2-1. The results are shown in FIG. 8 to FIG. 12, respectively.
(§1) RPE cells (ARPE-19) were seeded on a plate, and incubated for 5 days at 37° C. […] Each compound was added in a concentration of Cmax, ½ of Cmax or ¼ of Cmax. As a control, a sample to which a compound to be assessed (test drug) is not added was used. The collected cells were washed with PBS, and 350 μL of an RLT buffer was added to prepare a lysate for RNA extraction. Total RNA was extracted from the lysate using an RNeasy Micro kit (QIAGEN, #74004), and from 2 μg of the obtained RNA, cDNA was prepared using a SuperScript III First-Strand Synthesis SuperMix for qRT-PCR (Invitrogen, #11752-250). Using 50 ng of the obtained cDNA as a template, a real-time PCR (ABI Prism 7500 Sequence Detection System) was conducted according to the manufacturer's protocol, and expression of mRNA of each gene was quantified. Specific primers for respective genes were purchased from Invitrogen. Ct (Threshold Cycle) value of each gene was calculated as a percentage to a non-treated sample after normalization by endogenous control. For each result, a significant test (Student t test) was conducted, and when p<0.05, the result was marked with “*”, and when p<0.01, the result was marked with “**”.
RPE cells (ARPE-19) were seeded on a plate, and incubated for 5 days at 37° C. For the RPE cells, EMT was induced in the conditions described in Test example 5-1, and the five representative compounds (oxaprozin, epalrestat, zafirlukast, amlexanox, zaltoprofen) were added simultaneously, and the cells were collected after 48 hours from induction of EMT. As a control, a sample to which a compound to be assessed (test drug) is not added was used. The collected cells were washed with PBS, and 350 μL of an RLT buffer was added to prepare a lysate for RNA extraction. Total RNA was extracted from the lysate using an RNeasy Micro kit (QIAGEN, # 74004), and from 2 μg of the obtained RNA, cDNA was prepared using a SuperScript III First-Strand Synthesis SuperMix for qRT-PCR (Invitrogen, # 11752-250). […]

Compound | Enhancement of expression of Fibronectin, Snail and vimentin (mesenchymal markers)
Cc1cccc(Nc2ccccc2C(=O)O)c1C [Mefenamic acid, mefenamic acid] | suppressed enhancement of expression of these in a concentration dependent manner
CCc1cccc2c3c([nH]c12)C(CC)(CC(=O)O)OCC3 (stereo not shown) [Etodolac, etodolac] | did not suppress enhancement of expression of these
COc1ccc2c(c1)c(CC(=O)O)c(C)n2C(=O)c1ccc(Cl)cc1 [indomethacin] | did not suppress enhancement of expression of these

Same assay, conditions: EMT-induced ARPE-19, 48 hours; oxaprozin 300 μM, epalrestat 30 μM, zafirlukast 3 μM, amlexanox 30 μM, zaltoprofen 30 μM

Compound | EMT suppression (FIG. 3 to FIG. 7) | Expression of EMT markers other than the ten common markers | Expression of Snail, Slug, CDH3, MMP1, MMP7, COL5A3, COL6A3, LAMC2, HMMR, TNC
CC(C)c1ccc2oc3nc(N)c(C(=O)O)cc3c(=O)c2c1 [Amlexanox, amlexanox] | significantly suppress EMT | decrease in expression was observed in ZEB2, CDH2, MMP3, COL1A1, and COL13A1 | suppressed expression
COc1cc(C(=O)NS(=O)(=O)c2ccccc2C)ccc1Cc1cn(C)c2ccc(NC(=O)OC3CCCC3)cc12 [Zafirlukast, zafirlukast] | significantly suppress EMT | decrease in expression was observed in MMP3, COL13A1, LAMB3, or CSPG4 | suppressed expression

Same assay, conditions: flufenamic acid aluminum 28 μM, mefenamic acid 39 μm, sulindac 100 μM, tiaprofenic acid 1000 μM, seratrodast 31 μM

Compound | Expression of EMT markers at the time of EMT induction (FIG. 8 to FIG. 12)
Cc1cccc(Nc2ccccc2C(=O)O)c1C [Mefenamic acid, mefenamic acid] | significantly suppress expression of EMT markers at the time of EMT induction; also recorded: lower expression of EMT markers at the time of EMT induction
CC(C(=O)O)c1ccc(C(=O)c2ccccc2)s1 (stereo not shown) [Tiaprofenic acid, tiaprofenic acid] | significantly suppress expression of EMT markers at the time of EMT induction; also recorded: lower expression of EMT markers at the time of EMT induction
CC1=C(CC(=O)O)c2cc(F)ccc2/C1=C\c1ccc([S+](C)[O-])cc1 (stereo not shown) [Sulindac, sulindac] | significantly suppress expression of EMT markers at the time of EMT induction; also recorded: lower expression of EMT markers at the time of EMT induction

Tested on: VEGF
Assay: Change in expression of VEGF mRNA (real-time PCR) in EMT-induced RPE cells
Assay type: cell-based, human
Conditions: EMT-induced ARPE-19, 48 hours; compound at Cmax, ½ of Cmax or ¼ of Cmax
Procedure: as §1
The results are shown in FIG. 16 or FIG. 17, respectively.
The VEGF suppressive effect was assessed using the cell model as described above in the same manner as in Test example 2-3. The results are shown in FIG. 18 to FIG. 20, respectively.

Compound | Enhancement of VEGF mRNA expression by EMT induction
Cc1cccc(Nc2ccccc2C(=O)O)c1C [Mefenamic acid, mefenamic acid] | suppressed enhancement of VEGF expression in a concentration dependent manner
CCc1cccc2c3c([nH]c12)C(CC)(CC(=O)O)OCC3 (stereo not shown) [Etodolac, etodolac] | did not suppress enhancement of VEGF expression
COc1ccc2c(c1)c(CC(=O)O)c(C)n2C(=O)c1ccc(Cl)cc1 [indomethacin] | did not suppress enhancement of VEGF expression

Same assay, conditions: EMT-induced ARPE-19, 48 hours; compound at Cmax, ½ of Cmax or ¼ of Cmax; listed as mefenamic acid

Compound | Enhancement of VEGF mRNA expression by EMT induction
Cc1cccc(Nc2ccccc2C(=O)O)c1C [Mefenamic acid, mefenamic acid] | suppress enhancement of mRNA expression of VEGF

Tested on: RPE cells (ARPE-19)
Assay: Focus (drusen-like structure) formation suppression in EMT induction model of RPE cells
Assay type: cell-based, human
Conditions: FIG. 35 to 39; EMT-induced ARPE-19, 48 hours
Procedure: RPE cells (ARPE-19) were seeded on a plate, and incubated for 5 days at 37° C. […] As a control of EMT induction, a sample to which a compound to be assessed (test drug) is not added was used. After 48 hours from EMT induction, the cells were fixed by treating with a 4% paraformaldehyde solution for 30 minutes at room temperature, and then washed three times with PBS. The cells were treated with a 0.2% Triton-X/PBS solution for 5 minutes, and washed three times with PBS. […] The fluorescent-stained cells were imaged by using an Image Express Micro (available from Molecular Devices), and digitized by using a MetaXpress2.0 (available from Molecular Devices). By analyzing the degree of formation of Focus (Focus level) from the numerical data, a Focus formation suppressing rate was calculated according to the following Formula 1 on the basis of the numerical value at the time of no addition of a compound, and the EMT suppressive effect in each compound was verified. The degree of formation of Focus (Focus level) was determined according to the number and the volume of Focus as indexes.
IC50 in the table was calculated using the following Formula 2.
A: Higher concentration sandwiching 50%
B: Lower concentration sandwiching 50%
C: Inhibition rate at lower concentration sandwiching 50%
D: Inhibition rate at higher concentration sandwiching 50%
RPE cells (ARPE-19) were seeded on a plate, and incubated for 5 days at 37° C. […] As a control of EMT induction, a sample to which a compound to be assessed (test drug) is not added was used. The cells after observation were fixed by treating with a 4% paraformaldehyde solution for 30 minutes at room temperature, and then washed three times with PBS. The cells were treated with a 0.2% Triton-X/PBS solution for 5 minutes, and washed three times with PBS. […] The fluorescent-stained cells were imaged by using an Image Express Micro (available from Molecular Devices), and digitized by using a MetaXpress2.0 (available from Molecular Devices). By analyzing the degree of formation of Focus from the numerical data, a Focus formation suppressing rate was calculated on the basis of the case without addition of a compound and the case without EMT induction, and the EMT suppressive effect in each compound was verified. […] After washing three times with methanol, the cells were dried for 3 hours at room temperature. The dried cells were observed under a microscope.

Compound | Suppression of drusen-like structure formed in the RPE cell model
CC(C)c1ccc2oc3nc(N)c(C(=O)O)cc3c(=O)c2c1 [Amlexanox, amlexanox] | suppresses a drusen-like structure formed in the RPE cell model in a concentration-dependent manner
COc1cc(C(=O)NS(=O)(=O)c2ccccc2C)ccc1Cc1cn(C)c2ccc(NC(=O)OC3CCCC3)cc12 [Zafirlukast, zafirlukast] | suppresses a drusen-like structure formed in the RPE cell model in a concentration-dependent manner

Same assay, conditions: Homo sapiens, RPE; Table 2; same manner as Test example 6-1; read-out: IC50 (Focus formation suppressing rate, EMT suppressive effect)

Compound | IC50
Cc1cccc(Nc2ccccc2C(=O)O)c1C [Mefenamic acid, mefenamic acid] | 12.4 µM
CC(C(=O)O)c1ccc(C(=O)c2ccccc2)s1 (stereo not shown) [Tiaprofenic acid, tiaprofenic acid] | 374 µM
CC1=C(C)C(=O)C(C(CCCCCC(=O)O)c2ccccc2)=C(C)C1=O (stereo not shown) [Seratrodast, seratrodast] | 54.6 µM
CC1=C(CC(=O)O)c2cc(F)ccc2/C1=C\c1ccc([S+](C)[O-])cc1 (stereo not shown) [Sulindac, sulindac] | 35.3 µM

Same assay, conditions: Homo sapiens; Table 1; EMT-induced ARPE-19, compound added simultaneously, 48 hours; read-out: IC50 (Focus formation suppressing rate, EMT suppressive effect)

Compound | IC50
CC(C)c1ccc2oc3nc(N)c(C(=O)O)cc3c(=O)c2c1 [Amlexanox, amlexanox] | 32.5 µM
CC(C)Cc1ccc(C(C)C(=O)O)cc1 (stereo not shown) [Ibuprofen, ibuprofen] | 18 µM
CC(/C=C1\SC(=S)N(CC(=O)O)C1=O)=C\c1ccccc1 [Epalrestat, epalrestat] | 16.9 µM
CC(C(=O)O)c1ccc(-c2ccccc2)c(F)c1 (stereo not shown) [Flurbiprofen, flurbiprofen] | 32.6 µM
O=C(Nc1cccc2c(=O)cc(-c3nnn[nH]3)oc12)c1ccc(OCCCCc2ccccc2)cc1 [Pranlukast, pranlukast] | 1.1 µM
COc1cc(C(=O)NS(=O)(=O)c2ccccc2C)ccc1Cc1cn(C)c2ccc(NC(=O)OC3CCCC3)cc12 [Zafirlukast, zafirlukast] | 3.8 µM

Same assay, conditions: Homo sapiens; Test example 7; EMT-induced ARPE-19, 48 hours; read-out: IC50 values in the drusen-like structure suppressing tests

Compound | IC50
CC(C)c1ccc2oc3nc(N)c(C(=O)O)cc3c(=O)c2c1 [Amlexanox, amlexanox] | 32.5 µM
CC(/C=C1\SC(=S)N(CC(=O)O)C1=O)=C\c1ccccc1 [Epalrestat, epalrestat] | 16.9 µM
COc1cc(C(=O)NS(=O)(=O)c2ccccc2C)ccc1Cc1cn(C)c2ccc(NC(=O)OC3CCCC3)cc12 [Zafirlukast, zafirlukast] | 3.8 µM

Tested on: not given
Assay: not given
Conditions: Pharmaceutical Interview Form, single-dose administration; read-out: Cmax; cited from earlier work

Compound | Cmax
CC(C)c1ccc2oc3nc(N)c(C(=O)O)cc3c(=O)c2c1 [Amlexanox, amlexanox] | 16 µM
Cc1cccc(Nc2ccccc2C(=O)O)c1C [Mefenamic acid, mefenamic acid] | 38.5 µM
CC(/C=C1\SC(=S)N(CC(=O)O)C1=O)=C\c1ccccc1 [Epalrestat, epalrestat] | 12.2 µM
COc1cc(C(=O)NS(=O)(=O)c2ccccc2C)ccc1Cc1cn(C)c2ccc(NC(=O)OC3CCCC3)cc12 [Zafirlukast, zafirlukast] | 0.8 µM
CC(C(=O)O)c1ccc(C(=O)c2ccccc2)s1 (stereo not shown) [Tiaprofenic acid, tiaprofenic acid] | 69.2 µM
CC1=C(C)C(=O)C(C(CCCCCC(=O)O)c2ccccc2)=C(C)C1=O (stereo not shown) [Seratrodast, seratrodast] | 31 µM
CC1=C(CC(=O)O)c2cc(F)ccc2/C1=C\c1ccc([S+](C)[O-])cc1 (stereo not shown) [Sulindac, sulindac] | 10.1 µM

Same assay, conditions: Table 3; from the interview form and the package insert of each drug; read-out: Cmax; cited from earlier work

Compound | Cmax
CC(C)c1ccc2oc3nc(N)c(C(=O)O)cc3c(=O)c2c1 [Amlexanox, amlexanox] | 16 µM
CC(/C=C1\SC(=S)N(CC(=O)O)C1=O)=C\c1ccccc1 [Epalrestat, epalrestat] | 12.2 µM
COc1cc(C(=O)NS(=O)(=O)c2ccccc2C)ccc1Cc1cn(C)c2ccc(NC(=O)OC3CCCC3)cc12 [Zafirlukast, zafirlukast] | 0.8 µM

Same assay, conditions: quoted in Test examples 2-3, 2-4, 2-5; read-out: Cmax (as quoted in the VEGF test examples); cited from earlier work

Compound | Cmax
Cc1cccc(Nc2ccccc2C(=O)O)c1C [Mefenamic acid, mefenamic acid] | 38.5 µM
CC(/C=C1\SC(=S)N(CC(=O)O)C1=O)=C\c1ccccc1 [Epalrestat, epalrestat] | 12.2 µM
CCc1cccc2c3c([nH]c12)C(CC)(CC(=O)O)OCC3 (stereo not shown) [Etodolac, etodolac] | 42.5 µM
COc1ccc2c(c1)c(CC(=O)O)c(C)n2C(=O)c1ccc(Cl)cc1 [indomethacin] | 2.79 µM
CC1=C(C)C(=O)C(C(CCCCCC(=O)O)c2ccccc2)=C(C)C1=O (stereo not shown) [Seratrodast, seratrodast] | 31 µM
